42 molecules from patent US11180488B2, “Isoxazole o-linked carbamoyl cyclohexyl acids as LPA antagonists” (BRISTOL-MYERS SQUIBB COMPANY, priority 2017, dated 2021) can be followed below.

T1 sequence (Q92633 whole entry): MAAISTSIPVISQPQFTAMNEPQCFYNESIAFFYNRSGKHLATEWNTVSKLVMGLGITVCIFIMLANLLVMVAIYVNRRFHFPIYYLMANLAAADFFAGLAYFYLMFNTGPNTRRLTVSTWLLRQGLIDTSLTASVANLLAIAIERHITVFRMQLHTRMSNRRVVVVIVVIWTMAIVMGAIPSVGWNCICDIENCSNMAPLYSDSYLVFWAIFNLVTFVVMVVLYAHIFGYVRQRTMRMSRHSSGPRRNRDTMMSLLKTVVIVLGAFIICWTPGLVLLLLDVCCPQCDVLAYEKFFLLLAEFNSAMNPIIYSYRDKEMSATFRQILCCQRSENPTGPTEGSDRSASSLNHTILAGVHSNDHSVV

One assay addresses T1, human LPA1 (Homo sapiens, UniProt Q92633).
T1 construct: expressed in transfected cells; host or cells: Chinese hamster ovary (CHO) cells
Description: LPA1 functional antagonist assay (LPA-induced calcium flux). The following applies: CHO cells overexpressing human LPA1; calcium flux induced by 10 nM LPA; read-out: LPA1 IC50. Format: cell-based. As to the method: The effectiveness of compounds of the present invention as LPA1 inhibitors can be determined in an LPA1 functional antagonist assay as follows:
Chinese hamster ovary cells overexpressing human LPA1 were plated overnight (15,000 cells/well) in poly-D-lysine coated 384-well microplates (Greiner bio-one, Cat #781946) in DMEM/F12 medium (Gibco, Cat #11039). Following overnight culture, cells were loaded with calcium indicator dye (AAT Bioquest Inc, Cat #34601) for 30 minutes at 37° C. The cells were then equilibrated to room temperature for 30 minutes before the assay. Test compounds solubilized in DMSO were transferred to 384 well non-binding surface plates (Corning, Cat #3575) using the Labcyte Echo acoustic dispense and diluted with assay buffer [1×HBSS with calcium/magnesium (Gibco Cat #14025-092), 20 mM HEPES (Gibco Cat #15630-080) and 0.1% fatty acid free BSA (Sigma Cat #A9205)] to a final concentration of 0.5% DMSO. Diluted compounds were added to the cells by FDSS6000 (Hamamatsu) at final concentrations ranging from 0.08 nM to 5 μM. and were then incubated for 20 min at room temperature at which time LPA (Avanti Polar Lipids Cat #857130C) was added at final concentrations of 10 nM to stimulate the cells. […] IC50 values were determined by fitting data to a 4-parameter logistic equation (GraphPad Prism, San Diego Calif.).
For orientation: Calcium assays in cells follow changes in intracellular calcium, usually with a dye or a luminescent sensor.
By IC50 is commonly meant the concentration needed to halve the response being measured. As for `Cc1noc(-c2ccc(O[C@H]3CCC[C@H](C(=O)O)C3)cn2)c1COC(=O)N(C)C(C1CC1)C1CC1` [Example 57], the IC50 worked out at 26 nM. Same read-out and setting: under `Cc1nc(-c2onc(C)c2COC(=O)N(C)Cc2cccc(F)c2)ccc1O[C@H]1CCC[C@H](C(=O)O)C1` [Example 61] stands 19 nM; under `Cc1cc(-c2onc(C)c2COC(=O)N(C)C2CCCC2)ccc1O[C@H]1CCC[C@H](C(=O)O)C1` [Example 64], 52 nM. On the same count and under the same terms, under `Cc1nc(-c2onc(C)c2COC(=O)N(C)C(C)(C)C)ccc1O[C@H]1CCC[C@H](C(=O)O)C1` [Example 63] stands 50 nM; under `Cc1noc(-c2ccc(O[C@H]3CCC[C@H](C(=O)O)C3)cn2)c1COC(=O)N(C)CC1CCC1` [Example 58], 8 nM. Same read-out and setting: under `Cc1noc(-c2cnc(O[C@H]3CCC[C@H](C(=O)O)C3)cn2)c1COC(=O)N(C)CCC(C)C` [Example 56] stands 150 nM.

Still in this assay, the particulars now being: CHO cells overexpressing human LPA1; calcium flux induced by 10 nM LPA; read-out: hLPA1 IC50.
As for `Cc1noc(-c2cnc(O[C@H]3CCC[C@H](C(=O)O)C3)cn2)c1COC(=O)N(C)C(C)C1CC1` (mixture of isomers) [Example 9, (±)-Trans-3-((5-(4-((((1-cyclopropylethyl)(methyl)carbamoyl)oxy)methyl)-3-methyl-isoxazol-5-yl)pyrazin-2-yl)oxy)cyclohexanecarboxylic Acid], the half-inhibitory concentration (IC50) came out at 85 nM. The same measure, in the same setting: under `Cc1noc(-c2ccc(O[C@H]3CCC[C@H](C(=O)O)C3)cn2)c1COC(=O)N[C@H](C)C1CC1` [Example 40] stands 1650 nM; under `Cc1noc(-c2ccc(O[C@H]3CCC[C@H](C(=O)O)C3)cn2)c1COC(=O)N(C)[C@@H](C)C1CC1` [Example 41], 46 nM; under `Cc1nc(-c2onc(C)c2COC(=O)N(C)Cc2cccc(Cl)c2)ccc1O[C@H]1CCC[C@H](C(=O)O)C1` [Example 17], 399 nM. Same read-out and setting: under `CCCCN(C)C(=O)OCc1c(C)noc1-c1ccc(O[C@H]2CCC[C@H](C(=O)O)C2)cc1` [Example 2, (1S,3S)-3-(4-(4-(((butyl(methyl)carbamoyl)oxy)methyl)-3-methylisoxazol-5-yl)phenoxy) cyclohexane-1-carboxylic Acid] stands 28 nM; under `Cc1noc(-c2ccc(O[C@H]3CCC[C@H](C(=O)O)C3)cc2)c1COC(=O)N(C)CCC1CC1` [Example 27], 23 nM; under `CCCCN(C)C(=O)OCc1c(C)noc1-c1ccc(O[C@H]2CCC[C@H](C(=O)O)C2)c(C)n1` [Example 15], 15 nM.

Regarding `COC(C)CN(C)C(=O)OCc1c(C)noc1-c1ccc(O[C@@H]2CCC[C@@H](C(=O)O)C2)cc1` (stereo partly drawn) [Example 71], the IC50 worked out at 1630 nM. Take `Cc1onc(-c2ccc(O[C@H]3CCC[C@H](C(=O)O)C3)cc2)c1COC(=O)N(C)C1CCCC1` [Example 53, (1S,3S)-3-(4-(4-(((cyclopentyl(methyl)carbamoyl)oxy)methyl)-5-methylisoxazol-3-yl)phenoxy)cyclohexane-1-carboxylic Acid]: the IC50 came to 6 nM. On the same count and under the same terms, the result for `CCCCN(C)C(=O)OC(C)c1c(C)noc1-c1ccc(O[C@H]2CCC[C@H](C(=O)O)C2)cc1` (stereo partly drawn) [Example 52] reads 60 nM; that for `Cc1nc(-c2onc(C)c2COC(=O)N(C)Cc2ccccc2)ccc1O[C@H]1CCC[C@H](C(=O)O)C1` [Example 18], 31 nM; that for `Cc1nc(-c2onc(C)c2COC(=O)N(C)C2CCCC2)ccc1O[C@H]1CCC[C@@H](C(=O)O)C1` [Example 39], 27 nM. On the same count and under the same terms, the result for `Cc1nc(-c2onc(C)c2COC(=O)N(C)CCC(C)C)ccc1O[C@H]1CCC[C@H](C(=O)O)C1` [Example 20] reads 8 nM. `Cc1noc(-c2ccc(O[C@@H]3CCC[C@@H](C(=O)O)C3)cc2)c1COC(=O)N(C)CCC1CCCC1` [Example 28]: the IC50 is 470 nM. The same measure, in the same setting: under `Cc1noc(-c2ccc(OC3CCCC(c4nnn[nH]4)C3)cc2)c1COC(=O)N(C)C1CCCC1` (single isomer, unassigned) [Example 77, (5-(4-((3-(1H-tetrazol-5-yl)cyclohexyl)oxy)phenyl)-3-methylisoxazol-4-yl)methyl cyclopentyl(methyl)carbamate] stands 379 nM; under `Cc1noc(-c2ccc(O[C@H]3CCC[C@](C)(C(=O)O)C3)cc2)c1COC(=O)N(C)C1CCCC1` (racemic) [Example 8, (±)-Trans-3-(4-(4-(((cyclopentyl(methyl)carbamoyl)oxy)methyl)-3-methylisoxazol-5-yl)phenoxy)-1-methylcyclohexanecarboxylic Acid], 89 nM; under `Cc1noc(-c2ccc(O[C@@H]3CCC[C@@H](C(=O)O)C3)cc2)c1COC(=O)N(C)C(C)C1CC1` (stereo partly drawn) [Example 68], 48 nM.

As to `Cc1nc(-c2onc(C)c2COC(=O)N(C)CC2CCCC2)ccc1O[C@H]1CCC[C@H](C(=O)O)C1` [Example 21], the IC50 turned out to be 29 nM. Still for that read-out and setting: the result for `CCCCCN(C)C(=O)OCc1c(C)noc1-c1ccc(O[C@H]2CCC[C@H](C(=O)O)C2)c(C)n1` [Example 19] reads 10 nM; that for `Cc1noc(-c2ccc(O[C@H]3CCC[C@H](C(N)=O)C3)cc2)c1COC(=O)N(C)C1CCCC1` (racemic) [Example 73, (±)-Trans-(5-(4-((3-carbamoylcyclohexyl)oxy)phenyl)-3-methylisoxazol-4-yl)methyl cyclopentyl(methyl)carbamate], 1210 nM. Still for that read-out and setting: under `Cc1noc(-c2ccc(O[C@H]3CCC[C@H](C(=O)O)C3)cc2)c1COC(=O)N(C)CCC(C)(C)C` [Example 30] stands 60 nM; under `Cc1noc(-c2ccc(O[C@H]3CCC[C@H](C(=O)O)C3)cc2)c1COC(=O)N(C)CCC1CCC1` (racemic) [Example 29], 424 nM; under `Cc1nc(-c2onc(C)c2COC(=O)N(C)C2CCCC2)ccc1O[C@H]1CCC[C@H](C(=O)O)C1` [Example 12], 14 nM. The same measure, in the same setting: under `Cc1nc(-c2onc(C)c2COC(=O)N(C)CCC2CC2)ccc1O[C@H]1CCC[C@H](C(=O)O)C1` [Example 10, (1S,3S)-3-((6-(4-((((2-Cyclopropylethyl)(methyl)carbamoyl)oxy)methyl)-3-methylisoxa-zol-5-yl)-2-methylpyridin-3-yl)oxy)cyclohexanecarboxylic Acid] stands 11 nM; under `Cc1noc(-c2ccc(O[C@@H]3CCC[C@@](F)(C(=O)O)C3)cc2)c1COC(=O)N(C)C1CCCC1` (racemic) [Example 3], 18 nM. `Cc1noc(-c2ccc(O[C@@H]3CCC[C@](C)(C(=O)O)C3)cc2)c1COC(=O)N(C)C1CCCC1` (racemic) [Example 7, (±)-Cis-3-(4-(4-(((cyclopentyl(methyl)carbamoyl)oxy)methyl)-3-methylisoxazol-5-yl)phenoxy)-1-methylcyclohexanecarboxylic Acid]: the IC50 came out at 2180 nM. Same read-out and setting: the result for `Cc1onc(-c2ccc(O[C@H]3CCC[C@H](C(=O)O)C3)nc2)c1COC(=O)N(C)C1CCCC1` [Example 54, (1S,3S)-3-((5-(4-(((cyclopentyl(methyl)carbamoyl)oxy)methyl)-5-methylisoxazol-3-yl)pyridin-2-yl)oxy)cyclohexane-1-carboxylic Acid] reads 197 nM; that for `Cc1noc(-c2ccc(O[C@@H]3CCC[C@@](F)(C(=O)O)C3)cc2)c1COC(=O)N(C)C1CCCC1` (single isomer, unassigned) [Example 4], 15 nM. The same measure, in the same setting: the result for `Cc1nc(-c2onc(C)c2COC(=O)N(C)C2(c3ccccc3)CC2)ccc1O[C@H]1CCC[C@H](C(=O)O)C1` [Example 16] reads 93 nM; that for `Cc1noc(-c2ccc(OC3CCCC(c4nnn[nH]4)C3)cc2)c1COC(=O)N(C)C1CCCC1` (single isomer, unassigned) [Example 78, (5-(4-((3-(1H-tetrazol-5-yl)cyclohexyl)oxy)phenyl)-3-methylisoxazol-4-yl)methyl cyclopentyl(methyl)carbamate], 565 nM; that for `Cc1noc(-c2ccc(O[C@H]3CCC[C@H](C(=O)O)C3)cn2)c1COC(=O)N(C)CCC(C)C` [Example 45], 5.2 nM.

On to `Cc1noc(-c2ccc(O[C@@H]3CCC[C@@H](CC(=O)O)C3)cc2)c1COC(=O)N(C)C1CCCC1` (racemic) [Example 47, (±)-(Trans)-2-(3-(4-(4-(((cyclopentyl(methyl)carbamoyl)oxy)methyl)-3-methylisoxazol-5-yl)phenoxy)cyclohexyl)acetic Acid], for which the IC50 was 570 nM. Take `Cc1noc(-c2ccc(O[C@H]3CCC[C@H](C(=O)O)C3)cn2)c1COC(=O)N(C)[C@H](C)C1CC1` [Example 42]: the IC50 is 20 nM. Same read-out and setting: the result for `Cc1noc(-c2ccc(O[C@H]3CCC[C@H](C(=O)O)C3)cc2)c1COC(=O)N1C[C@H]2C[C@H]2C1` [Example 35] reads 1230 nM; that for `Cc1noc(-c2ccc(OC3CCCC(c4nnn[nH]4)C3)cc2)c1COC(=O)N(C)C1CCCC1` (single isomer, unassigned) [Example 76, (5-(4-((3-(1H-tetrazol-5-yl)cyclohexyl)oxy)phenyl)-3-methylisoxazol-4-yl)methyl cyclopentyl(methyl)carbamate], 2310 nM. Same read-out and setting: the result for `Cc1noc(-c2ccc(O[C@H]3CCC[C@H](C(=O)O)C3)cn2)c1COC(=O)N(C)CCC1CC1` [Example 43] reads 15 nM.
